These results are taken from ChEMBL document CHEMBL1914287, “Synthesis and in vivo evaluation of [18F]N-(2-benzofuranylmethyl)-N'-[4-(2-fluoroethoxy)benzyl]piperazine, a novel σ1 receptor PET imaging agent” (Bioorg Med Chem Lett, 2011).

pIC50, pKi: −log10 of the molar value.

The target of data set [1] is T1, Sigma non-opioid intracellular receptor 1 (Homo sapiens, UniProt Q99720). Nature of the data set: Binding affinity to sigma 1 receptor by radioligand displacement assay. In general terms: Loss of bound radioactivity is the signal in a displacement assay; it reports binding, not function.
Data set [2] can be described thus: Binding affinity to sigma 2 receptor by radioligand displacement assay.
Data set [3] deals with Sigma non-opioid intracellular receptor 1 (Cavia porcellus, UniProt Q60492). Kind of data set: Binding affinity to sigma 1 receptor in guinea pig brain membrane. The data set is classed as cell membranes.
Data set [4] is described as follows: Binding affinity to sigma 2 receptor in guinea pig brain membrane. The data set is classed as cell membranes, Cavia porcellus.
The test system of data set [5] is Rhesus monkey. Kind of data set: Inhibition of sigma 2 receptor in conscious monkey brain at 220 to 802 MBq, iv. The data set is classed as functional, organism-based. Particulars: Macaca mulatta; call rule not given here.
Data set [6] concerns Rhesus monkey. Nature of the data set: Inhibition of sigma 1 receptor in conscious monkey brain at 220 to 802 MBq, iv. Particulars: Macaca mulatta. The data set is classed as functional, organism-based.
Data set [7] in a line: Drug uptake in cortex of baboon brain at 100 MBq, iv administered 5 mins after haloperidol challenge measured within 5 mins by microPET imaging. The class given is ADME, organism-based. Particulars: papio hamadryas, in vivo.
The nature of data set [8]: Drug uptake in cerebellum of baboon brain at 100 MBq, iv administered 5 mins after haloperidol challenge measured after 60 mins by microPET imaging. The data set is classed as ADME, organism-based. To be noted: papio hamadryas, in vivo, 1 h.
Data set [9] is described as follows: Drug uptake in left striatum of baboon brain at 100 MBq, iv administered 5 mins after haloperidol challenge measured within 3 mins by microPET imaging. The class given is ADME, organism-based. To be noted: papio hamadryas, in vivo.
Data set [10] can be described thus: Drug uptake in cerebellum of baboon brain at 100 MBq, iv measured after 60 mins by microPET imaging. The data set is classed as ADME, organism-based. Particulars: papio hamadryas, in vivo, 1 h.
Data set [11] is described as follows: Drug uptake in left striatum of baboon brain at 100 MBq, iv administered 5 mins after haloperidol challenge measured after 60 mins by microPET imaging. The class given is ADME, organism-based. Particulars: papio hamadryas, in vivo, 1 h.
Data set [12] can be described thus: Drug uptake in right striatum of baboon brain at 100 MBq, iv measured within 5 mins by microPET imaging. To be noted: papio hamadryas, in vivo. The data set is classed as ADME, organism-based.
Data set [13] in a line: Drug uptake in thalamus of baboon brain at 100 MBq, iv administered 5 mins after haloperidol challenge measured within 5 mins by microPET imaging. To be noted: papio hamadryas, in vivo. The class given is ADME, organism-based.
Data set [14] in a line: Drug uptake in cortex of baboon brain at 100 MBq, iv administered 5 mins after haloperidol challenge measured within 3 mins by microPET imaging. Particulars: papio hamadryas, in vivo. The class given is ADME, organism-based.
Data set [15] can be described thus: Drug uptake in cortex of baboon brain at 100 MBq, iv measured after 60 mins by microPET imaging. The class given is ADME, organism-based. Particulars: papio hamadryas, in vivo, 1 h.
The nature of data set [16]: Drug uptake in left striatum of baboon brain at 100 MBq, iv measured within 5 mins by microPET imaging. The data set is classed as ADME, organism-based. To be noted: papio hamadryas, in vivo.
Data set [17] can be described thus: Drug uptake in right striatum of baboon brain at 100 MBq, iv administered 5 mins after haloperidol challenge measured within 3 mins by microPET imaging. Particulars: papio hamadryas, in vivo. The class given is ADME, organism-based.
A short description of data set [18]: Drug uptake in cerebellum of baboon brain at 100 MBq, iv administered 5 mins after haloperidol challenge measured within 3 mins by microPET imaging. The data set is classed as ADME, organism-based. Particulars: papio hamadryas, in vivo.
Data set [19] can be described thus: Drug uptake in cortex of baboon brain at 100 MBq, iv measured within 5 mins by microPET imaging. The data set is classed as ADME, organism-based. Particulars: papio hamadryas, in vivo.
Data set [20] in a line: Drug uptake in thalamus of baboon brain at 100 MBq, iv administered 5 mins after haloperidol challenge measured within 3 mins by microPET imaging. The data set is classed as ADME, organism-based. To be noted: papio hamadryas, in vivo.
A short description of data set [21]: Drug uptake in left striatum of baboon brain at 100 MBq, iv administered 5 mins after haloperidol challenge measured within 5 mins by microPET imaging. The class given is ADME, organism-based. Particulars: papio hamadryas, in vivo.
Data set [22] can be described thus: Drug uptake in thalamus of baboon brain at 100 MBq, iv measured within 5 mins by microPET imaging. The class given is ADME, organism-based. To be noted: papio hamadryas, in vivo.
Data set [23] is described as follows: Drug uptake in right striatum of baboon brain at 100 MBq, iv administered 5 mins after haloperidol challenge measured within 5 mins by microPET imaging. The data set is classed as ADME, organism-based. Particulars: papio hamadryas, in vivo.
The nature of data set [24]: Drug uptake in cerebellum of baboon brain at 100 MBq, iv measured within 5 mins by microPET imaging. The class given is ADME, organism-based. Particulars: papio hamadryas, in vivo.
Data set [25] can be described thus: Drug uptake in cerebellum of baboon brain at 100 MBq, iv administered 5 mins after haloperidol challenge measured within 5 mins by microPET imaging. The data set is classed as ADME, organism-based. To be noted: papio hamadryas, in vivo.
A short description of data set [26]: Drug uptake in right striatum of baboon brain at 100 MBq, iv administered 5 mins after haloperidol challenge measured after 60 mins by microPET imaging. Particulars: papio hamadryas, in vivo, 1 h. The class given is ADME, organism-based.
Data set [27] in a line: Drug uptake in thalamus of baboon brain at 100 MBq, iv measured after 60 mins by microPET imaging. Particulars: papio hamadryas, in vivo, 1 h. The class given is ADME, organism-based.
The nature of data set [28]: Drug uptake in left striatum of baboon brain at 100 MBq, iv measured after 60 mins by microPET imaging. The class given is ADME, organism-based. Particulars: papio hamadryas, in vivo, 1 h.
Data set [29] can be described thus: Drug uptake in thalamus of baboon brain at 100 MBq, iv administered 5 mins after haloperidol challenge measured after 60 mins by microPET imaging. The class given is ADME, organism-based. Particulars: papio hamadryas, in vivo, 1 h.
The nature of data set [30]: Drug uptake in cortex of baboon brain at 100 MBq, iv administered 5 mins after haloperidol challenge measured after 60 mins by microPET imaging. The data set is classed as ADME, organism-based. To be noted: papio hamadryas, in vivo, 1 h.
Data set [31] in a line: Drug uptake in right striatum of baboon brain at 100 MBq, iv measured after 60 mins by microPET imaging. The data set is classed as ADME, organism-based. To be noted: papio hamadryas, in vivo, 1 h.
Data set [32] can be described thus: Binding affinity to sigma 2 receptor.
The target in data set [33] is T1, Sigma non-opioid intracellular receptor 1. Nature of the data set: Binding affinity to sigma 1 receptor.

T1 sequence (Q99720 whole entry): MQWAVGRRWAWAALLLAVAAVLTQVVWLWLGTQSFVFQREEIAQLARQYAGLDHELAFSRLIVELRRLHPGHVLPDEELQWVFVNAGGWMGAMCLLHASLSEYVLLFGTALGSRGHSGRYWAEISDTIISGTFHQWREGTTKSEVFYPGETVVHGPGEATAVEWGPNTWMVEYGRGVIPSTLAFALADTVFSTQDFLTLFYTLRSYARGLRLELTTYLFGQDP
Sigma non-opioid intracellular receptor 1 (Cavia porcellus, UniProt Q60492), sequence (Q60492 whole entry): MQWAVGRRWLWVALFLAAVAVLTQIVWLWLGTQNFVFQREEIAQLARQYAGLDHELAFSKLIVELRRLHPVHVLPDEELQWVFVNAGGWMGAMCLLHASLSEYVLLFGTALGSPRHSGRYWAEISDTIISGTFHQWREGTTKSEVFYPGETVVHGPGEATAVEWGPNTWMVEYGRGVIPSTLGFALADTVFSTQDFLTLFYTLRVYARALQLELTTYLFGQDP

As usually defined, the pKi is the negative decadic logarithm of the Ki, by convention in mol/L. For `FCCC1OC2(CCN(Cc3ccccc3)CC2)c2ccccc21` (stereo not drawn), the pKi in data set [1] was 9.23; in data set [2], 6.11.

On to `O=C(NC1CCN(Cc2ccccc2)CC1)c1ccccc1F`, for which the pKi is 8.47 in [3] and 6.39 in data set [4].

As a reminder, the pIC50 is the negative decadic logarithm of the IC50, by convention in mol/L. As for `COc1cc(CCN2CCN(CCCc3ccc(F)cc3)CC2)ccc1OCCF`, the pIC50 was 8.17 in the data set on Rhesus monkey [5] and 8.51 in the data set on Rhesus monkey [6].

On to `[18F]CCOc1ccc(CN2CCN(Cc3cc4ccccc4o3)CC2)cc1`, for which the Drug uptake result in [7] is listed as “Not Active”; in [8] it was “Not Active”; in data set [9], “Active”; in [10], “Active”; in data set [11] it was “Not Active”; in data set [12], “Active”. The Drug uptake entry in [13] is “Not Active”; in [14], “Active”; in data set [15], “Active”; in [16] it was “Active”; in data set [17], “Active”; in data set [18], “Active”. In addition, the Drug uptake entry in [19] was “Active”; in data set [20], “Active”; in data set [21] it was “Not Active”; in data set [22], “Active”; in data set [23], “Not Active”; in data set [24], “Active”. The Drug uptake entry in data set [25] was “Not Active”; in data set [26], “Not Active”; in data set [27], “Active”; in [28], “Active”; in data set [29], “Not Active”; in data set [30] it was “Not Active”. Also, the Drug uptake entry in [31] is “Active”.

In the case of `N#Cc1ccc(OCC2CCN(CCCF)CC2)cc1`, the pKi is 6.84 in data set [32] and 8.37 in data set [33].
